Data taken from patent publication US4289781A, “Anti-psychotic phthalimidine derivatives” (priority 1979, dated 1981).

What was measured:
[1] = tested on: DA receptors in the brain; assay: Block of apomorphine induced stereotypies in rats (0-3 scale scoring); assay type: in vivo, Male Sprague-Dawley rats; conditions: i.p., 60 min prior to apomorphine hydrochloride 1 mg/kg s.c.; dose reducing strength of stereotypies by 50% over 60 min
Excerpt: There are several techniques available to study DA receptor blockade in the brain. One method is based on the ability of anti-psychotics to block the behavioural effects induced by the DA agonist apomorphine. Apomorphine produces a characteristic syndrome in rats and other species consisting of repetitive movements (stereotypies) and hyperactivity which appear to be due to activation of postsynaptic DA receptors in the brain (J Pharm. Pharmacol. 19, 627, 1967; J Neurol. Transm. 40, 97-113, 1977). The stereotypies (chewing, licking, biting) appear mainly to reflect action on DA receptors of the neostriatal system ([…]. Res., 11, 1, 1974) whereas the increased locomotion (hyperactivity) mainly appears to be due to activation of DA receptors in mesolimbic structures (nucleus olfactorium, nucleus accumbens), (J Pharm. Pharmacol. 25, 1003, 1973). Male Sprague-Dawley rats weighing 225-275 g were used. […] The compounds were injected 60 min prior to apomorphine hydrochloride (1 mg/kg) which was injected subcutaneously into the neck. […] Furthermore, apomorphine given s.c. also produced a very consistent hyperactivity. Directly after injection, the animals were placed in the cages, one in each cage. Scoring of the stereotypies were performed by two separate methods. The first scoring system was a modified version of the system introduced by Costall and Naylor (1973). The strength of the stereotypy was scored on a 0-3 scale as follows: |______________________________________ |Score Description of stereotyped behaviour. |______________________________________ |0 No change in behaviour compared to saline controls | No sedation. |1 Discontinuous sniffing. |2 Continuous sniffing. |3 Continuous sniffing. Chewing, biting and licking. |______________________________________ In the second system the number of animals displaying hyperactivity caused by apomorphine were scored. Each group consisted of 6-8 animals. Saline controls were always run simultaneously. […] The ED50 's were calculated from log dose-response curves by the method of least squares from 4-6 dose levels with 6-8 animals per dose level.

[2] = tested on: DA receptors in the brain; assay: Block of apomorphine induced hyperactivity in rats (number of animals displaying hyperactivity); assay type: in vivo, Male Sprague-Dawley rats; conditions: i.p., 60 min prior to apomorphine hydrochloride 1 mg/kg s.c.; dose reducing number of animals showing hyperactivity by 50% over 60 min
Excerpt: There are several techniques available to study DA receptor blockade in the brain. One method is based on the ability of anti-psychotics to block the behavioural effects induced by the DA agonist apomorphine. Apomorphine produces a characteristic syndrome in rats and other species consisting of repetitive movements (stereotypies) and hyperactivity which appear to be due to activation of postsynaptic DA receptors in the brain (J Pharm. Pharmacol. 19, 627, 1967; J Neurol. Transm. 40, 97-113, 1977). The stereotypies (chewing, licking, biting) appear mainly to reflect action on DA receptors of the neostriatal system (J Phychiat. Res., 11, 1, 1974) whereas the increased locomotion (hyperactivity) mainly appears to be due to activation of DA receptors in mesolimbic structures (nucleus olfactorium, nucleus accumbens), (J Pharm. Pharmacol. 25, 1003, 1973).
Male Sprague-Dawley rats weighing 225-275 g were used. […] The compounds were injected 60 min prior to apomorphine hydrochloride (1 mg/kg) which was injected subcutaneously into the neck.
Directly after injection, the animals were placed in the cages, one in each cage. Scoring of the stereotypies were performed by two separate methods. The first scoring system was a modified version of the system introduced by Costall and Naylor (1973). The strength of the stereotypy was scored on a 0-3 scale as follows:
In the second system the number of animals displaying hyperactivity caused by apomorphine were scored. Each group consisted of 6-8 animals. Saline controls were always run simultaneously. ED50 's are in the first scoring system (0-3 scale), the doses which reduce the strength of the stereotypies by 50% over the observation period of 60 min. ED50 's of the second scoring system are the doses which reduce the number of animals showing hyperactivity by 50% over the observation period of 60 min. The ED50 's were calculated from log dose-response curves by the method of least squares from 4-6 dose levels with 6-8 animals per dose level.

[3] = in vivo; cited from earlier work
[4] = experimental animals; cited from earlier work

| SMILES | Stereotypies ED50 [1] [µmol/kg] | Hyperactivity ED50 [2] [µmol/kg] | extrapyramidal side effects [3] | catalepsy [4] |
| --- | --- | --- | --- | --- |
| O=C1c2ccc(F)cc2CN1C1CCN(Cc2ccccc2)CC1 [Example 1, 2-(4-N-benzylpiperidyl)-5-fluorophthalimidine] | 22.0 | 4.0 |  |  |
| O=C1c2ccc(Br)cc2CN1C1CCN(Cc2ccccc2)CC1 [Example 2, 2-(4-N-benzylpiperidyl)-5-bromo phthalimidine] | 17.5 | 14 |  |  |
| O=C1c2ccc(Cl)cc2CN1C1CCN(Cc2ccccc2)CC1 [Example 3, 2-(4-N-benzylpiperidyl)-5-chloro phthalimidine] | 16.0 | 2.0 |  |  |
| COc1ccc(CN2CCC(N3Cc4cc(Cl)ccc4C3=O)CC2)cc1 [Example 7, 5-chloro-2-[4-N-(4-methoxybenzyl)piperidyl]-phthalimidine] | 9.5 | 2.2 |  |  |
| O=C1c2ccc(Br)cc2CN1C1CCN(Cc2ccc(Cl)cc2)CC1 [Example 11, 5-bromo-2-[4-N-(4-chlorobenzyl)-piperidyl]-phthalimidine] | 11 | 3.4 |  |  |
| Cc1ccc(CN2CCC(N3Cc4cc(Br)ccc4C3=O)CC2)cc1 [Example 14] | 6.5 | 1.7 |  |  |
| O=C1c2ccc(Cl)cc2CN1C1CCN(Cc2ccc(Cl)cc2)CC1 [Example 15, 5-chloro-2-[4-N-(4-chlorobenzyl)piperidyl)-phthalimidine] | 14 | 3.5 |  |  |
| Cc1ccc(CN2CCC(N3Cc4cc(Cl)ccc4C3=O)CC2)cc1 [Example 16, 5-chloro-2-[4-N-(4-methylbenzyl)piperidyl]-phthalimidine] | 9 | 0.9 |  |  |
| CCN1CCCC1CNC(=O)c1cc(S(N)(=O)=O)ccc1OC (stereo not shown) [Sulpiride] |  | 45 | weak extrapyramidal side effects | weak catalepsy |
